These results are taken from patent publication US20180214462A1 (priority 2015, published 2018).

“Also recorded” adds a separate entry of the source.

One data set has as its system cortex of rats. The data set is classed as in vivo, rat. The settings on record: for increase in vessel permeability: cortical perfusion 1 mM, TTX, CNQX and PTX present. On the procedure: (§1) Body temperature was continuously monitored and kept stable at 37±0.5° C. using a feedback-controlled heating pad (Physitemp Ltd.). Heart rate, breath rate and oxygen saturation levels were continuously monitored using STARR (Life Sciences Ltd.). A cranial section (4 mm caudal, 2 mm frontal, 5 mm lateral to bregma) was removed over the right sensory-motor cortex. The dura and arachnoid layers were removed (FIG. 4B) and the exposed cortex was continuously perfused with ACSF (Prager et al., 2010) containing (in mM): 124 NaCl, 26 NaHCO3, 1.25 NaH2PO4, […], 2 CaCl2, 3 KCl, and 10 Glucose (pH 7.4).
(§2) To block neuronal activity tetrodotoxin (TTX) (Narahashi et al., 1964) (10 μM), 6-Cyano-2,3-dihydroxy-7-nitro-quinoxaline (CNQX) (Yoshiyama et al., 1995) (50 μM), D-AP5 (Morris, 1989) (50 μM) and picrotoxin (PTX) (Yoon et al., 1993) (50 μM) were added to the perfusing solution (ACSF). To induce prolonged seizures (status epilepticus, SE), 4AP (Uva et al., 2013) (500 μM) or PTX (100 μM) were added to the ACSF. Electrocorticgram (ECoG) was recorded using bi-polar electrodes and a telemetric recording system (DSI Ltd.). In some cases, thrombotic stroke was induced using photothrombosis (Prado, 1987). Detection of calcium ions in the rat cortex was done with calcium chelators as previously reported (Stosiek et al., 2003). 50 μg of the fluorescent chelator OGB were dissolved in 4 μl of dimethyl sulfoxide) DMSO) containing 20% pluronic f-127. This mixture was diluted in […] of a loading solution containing (in mM): 150 NaCl, 2.5 KCl, 10 HEPES, in ddH2O (pH=7.4).
(§3) Dynamic imaging of regional cerebral blood flow (rCBF) and BBB permeability measurements were performed as reported (Chassidim et al., 2014; Prager et al., 2010). The non-BBB permeable fluorescent dye, sodium fluorescein (NaFlu) was injected intravenously (1 mg/ml, 0.2 ml/injection, in 0.9% NaCl). Full-resolution (658×496 pixel) images of cortical surface vessels were obtained (5 frames/second, EMCCD camera: Andor Technology, DL-658 M-TIL, FIG. 4C) before, during and after injection of the tracer. Offline image analysis was carried out using MATLAB (MathWorks, Natick, USA) and included: sub-pixel image registration, segmentation using noise filtration, hole-filling and adaptive threshold to produce a binary image, separating blood vessels from extra-vascular regions (FIG. 4D). Signal intensity changes over time and space were then analyzed so that each pixel was represented by intensity vs. time (IT) curve (FIG. 4E). An arterial IT curve (AIF) was created by spatially averaging signal intensity through time in the primary artery. A BBB permeability index (PI) (FIG. 4E) was calculated for each extra-vascular pixel as the ratio between IT curve and AIF, from the point of the second decline phase to the end of the measurement
The PI indicates how much tracer remains in extra-vascular tissue in relation to the applied amount. PI>1 indicates tracer accumulation and defines BBB dysfunction. Fitting a PI to each extra-vascular pixel enabled spatial mapping of BBB permeability (FIG. 4F). The PI for each vascular pixel was set to 0, and therefore vessels were excluded from the map. The global permeability of a region was calculated by averaging its PI values. Permeability measurements with this approach are possible only for regions with fully functional vasculature as the transfer of molecules between vessel and parenchyma is quantified. Increased permeability in damaged vessels is not depicted here. […]

In a further data set the test system is exposed rat neocortex. Nature of the data set: NMDA-R antagonists during 4AP-induced recurrent seizures: BBB permeability, ECoG, vessel diameter. It counts as in vivo. The settings on record: 4AP seizures, Memantine 40 mg/kg IP or D-AP5 100 μM topical; for seizure-induced permeability increase / BBB damage: pooled, p=0.02. On the procedure: as §3
ECoG was recorded using a telemetric system (DSI Ltd.). Two electrodes were implanted, one attached to an intra-cranial screw adjacent to the exposed cortex, and the second placed over the exposed cortex while secured with bone wax and dental cement. In-house MATLAB scripts were used to display and record signals for post-processing. Signals were sampled at 200 Hz and filtered using a MATLAB simulated Butterworth filter, so to display only the desired frequency band (10-40 Hz). The mean power was calculated using the MATLAB “pwelch” function.
Since prolonged and recurrent epileptic seizures may also be associated with vascular pathology and damage to the BBB through the activation of NMDA-R, the effect of NMDA-R antagonists after the induction of recurrent seizures in anesthetized rats was tested. The epileptogenic substance 4AP was applied on the surface of the brain while monitoring ECoG.
Animals were treated with either topical application of the specific NMDA-R blocker D-AP5 (100 μM) (prior to and during seizure induction), or systemically with the FDA approved memantine (40 mg/kg, intraperitonealy, immediately following seizure onset).

Another data set deals with exposed cortex. The data set is described as follows: Focally-induced cortical seizures (4AP or PTX): intravital fluorescence angiography of vessel diameter and BBB permeability. The data set is classed as in vivo, rat. The settings on record: for increase in vessel diameter: seizures induced by 4AP (n=6) or PTX (n=2), pooled n=8, immediate. On the procedure: All experimental procedures in animals were approved by the Ben-Gurion University ethics committee for animal testing. Unless otherwise mentioned, all materials were purchased from Sigma-Aldrich ltd. Surgical procedures in male Spraugue-Dawley rats (200-380 g BW) were performed as previously reported (Prager et al., 2010). Rats were deeply anesthetized by intraperitoneal administration of either isoflurane or ketamine (100 mg/ml, 0.08 ml/100 gr) and xylasine (20 mg/ml, 0.06 ml/100 gr). The tail vein was catheterized, and animals were placed in a stereotactic frame (FIG. 4A) under a SteREO Lumar V12 fluorescence microscope (Zeiss, Gottingen, Germany).
as §1, §2, §3
The PI indicates how much tracer remains in extra-vascular tissue in relation to the applied amount. PI>1 indicates tracer accumulation and defines BBB dysfunction. Fitting a PI to each extra-vascular pixel enabled spatial mapping of BBB permeability (FIG. 4F). The PI for each vascular pixel was set to 0, and therefore vessels were excluded from the map. The global permeability of a region was calculated by averaging its PI values. […]

Data set [1] can be described thus: Preventing intracellular calcium elevation with calcium chelators in vivo. The settings on record: data not shown. The source says: The observations that direct application of NMDA similarly enhances permeability, and that permeability increase is blocked in the presence of NMDA-R blockers (FIG. 2A) indicate that the effect of glutamate is mediated by NMDA-R. Our experiments showing increased intracellular calcium in vascular endothelium in response to glutamate are consistent with previous in vitro data showing that NMDA-mediated effects are dependent on increased intracellular calcium (Krizbai et al., 1998; Sharp et al., 2003). However, we cannot rule out non-calcium dependent signaling mechanisms and the role of other components of the neurovascular unit, such as astrocytes and pericytes, which could also respond to glutamate and signal brain endothelial cells to alter permeability (Carmignoto and Gómez-Gonzalo, 2010). […] The intracellular signaling leading to enhanced permeability is also not clear. […] The latter seems unlikely with the relatively short time delay between insult (seizure/stroke) and enhanced permeability. Modulation of transcellular transport mechanisms (e.g. intercellular adhesion molecule-ICAM mediated) (Yang et al., 2005)) may also be involved.
On the technique in general: A change in cytosolic calcium serves as a functional read-out for many receptors and channels.

The subject of the next data set is peri-ischemic cortex. Nature of the data set: Photothrombosis stroke model: BBB dysfunction in the peri-ischemic cortex. It counts as in vivo, rat. On the procedure:
as §3, with “Offline image analysis was carried out using MATLAB (MathWorks, Natick, USA) and included: sub-pixel image registration, segmentation using noise filtration, hole-filling and adaptive threshold to produce a binary image, separating blood vessels from extra-vascular regions (FIG. 4D).” left out, “An arterial IT curve (AIF) was created by spatially averaging signal intensity through time in the primary artery.” left out
The PI indicates how much tracer remains in extra-vascular tissue in relation to the applied amount. […] The global permeability of a region was calculated by averaging its PI values. Permeability measurements with this approach are possible only for regions with fully functional vasculature as the transfer of molecules between vessel and parenchyma is quantified. […]

The subject of data set [2] is vessels' wall (rat neocortex). The data set is described as follows: Calcium imaging (OGB, probe-based confocal laser endomicroscopy) in vessel wall after drop application of glutamate. The data set is classed as in vivo. On the procedure:
as §2
The exposed cortex was incubated with the final mixture for 1 hour. Probe-based confocal laser endomicroscopy (PCLE) was performed using Cellvizio dual band (Mauna Kea Technologies Ltd.) at 488 and 660 nm. […]
In control experiments, brains were exposed to ACSF for 60-120 min, no significant change in permeability was measured, excluding a time-dependent increase in permeability (“control”, −5.11±3.07%, n=16, P=0.7, Wilcoxon, FIG. 2A). […]

The test system of data set [3] is cultured brain endothelial cells. The settings on record: cited from earlier work.
The mark [4] stands for this setting: 30 minutes from seizure onset, recurrent seizures, n=7.
Setting [5] is: ~10 minutes from seizure onset, 4AP or PTX pooled, n=8.

With `CN[C@H](CC(=O)O)C(=O)O` [NMDA, N-methyl-d-aspartate], the “increase in vessel permeability” value in the data set on cortex of rats is 18.44±7.58%.

`CC12CC3CC(C)(C1)CC(N)(C3)C2` [memantine]: in the data set with exposed rat neocortex, the “seizure intensity (ECoG)” value is recorded as “no impact” and the “seizure-induced permeability increase / BBB damage” value is “diminished”.

Consider `Nc1ccncc1` [4AP], for which the figures for the “increase in vessel permeability to NaFlu” value in the data set with exposed cortex (setting [4]) and in the data set with exposed cortex (setting [5]) were 14.17±4.65% and 20.01±7.24%, respectively. Moreover, the “increase in vessel diameter” value with exposed cortex is on record as 10.05±1.01%.

Consider `CC(=O)OCOC(=O)CN(CC(=O)OCOC(C)=O)c1ccccc1OCCOc1ccccc1N(CC(=O)OCOC(C)=O)CC(=O)OCOC(C)=O` [BAPTA-AM], for which the “vascular side effect in vivo” value in data set [1] was “massive vasoconstriction and associated ischemia”.

As to picrotoxin [PTX], the “increase in vessel permeability to NaFlu” value with exposed cortex (setting [4]) amounted to 14.17±4.65%; in the data set with exposed cortex (setting [5]), 20.01±7.24%. Further, the “increase in vessel diameter” value in the data set on exposed cortex is 10.05±1.01%.

For the compound `N[C@H](CCCP(=O)(O)O)C(=O)O` [D-AP5, R-2-amino-5-phosphonopentanoate], the “change in vessel permeability by glutamate in the presence of antagonist” value in the data set on cortex of rats (glutamate + D-AP5 50 μM) is on record as −3.81±4.34%. Moreover, the “averaged percent increase in permeability in the peri-infarct cortex” value in the data set on peri-ischemic cortex (30 and 60 min following PT, n=7, p=0.13) was “non-significant change”. Also, the “spatial progression of BBB dysfunction in the peri-ischemic region” value with peri-ischemic cortex (30 and 60 minutes after clot induction, vs absence of D-AP5) was “significantly reduced; also recorded: significantly diminishes”. Also, in the data set on exposed rat neocortex, the “seizure intensity (ECoG)” value is on record as “no impact” and the “seizure-induced permeability increase / BBB damage” value is “diminished”.

On to `N[C@@H](CCC(=O)O)C(=O)O` [glutamate], for which, in the data set on cortex of rats, the “increase in vessel permeability” value is on record as 18.15%±5.9%. In the data set on cortex of rats (glutamate application with TTX, CNQX, PTX), the “change in vessel diameter” value was determined as 3.12±2.24%. In addition, the “shift in vascular diameter” value with cortex of rats (topical glutamate 1 mM with axonal and synaptic transmission blockers) is on record as “not inducing a shift in vascular diameter”. Also, in data set [2] (drop application of glutamate), the “calcium signal in the vessel wall” value is given as “Rise in calcium signal”. The “duration of increase in endothelial intracellular calcium” value in data set [2] (drop application of glutamate 0.01-1 mM, n=109) worked out at 12.5 ± 1.3 s. Further, the “permeability of cultured brain endothelial cells” value in data set [3] is listed as “increase permeability”. In addition, the “tight junction protein occludin” value in data set [3] (glutamate 1 mM, NMDA-R mediated) was “reduction in the levels and cellular redistribution”. The electrical resistance result in data set [3] (glutamate 1 mM) was “lower electrical resistance”.
